How the values were obtained:
ERK1 = target: T1, ERK1 (Homo sapiens, UniProt P27361); assay: ERK1 HTRF (biochemical) assay; conditions: HTRF
T1 construct: purchased Jubilant Biosys
Experimental: ERK1 and ERK2 HTRF (Biochemical) Assays
These assays employed a homogeneous time resolved fluorescence (HTRF) technique. […] The plate was incubated at room temperature for 60 min with shaking. […] The IC50 values (half maximal inhibitory concentration values) were subsequently determined using a sigmoidal dose-response curve (variable slope) in GraphPad Prism® 5 software.

ERK2 = target: T2, ERK2 (Homo sapiens, UniProt P28482); assay: ERK2 HTRF (biochemical) assay; conditions: HTRF
T2 construct: purchased Jubilant Biosys
T2 sequence (P28482 whole entry): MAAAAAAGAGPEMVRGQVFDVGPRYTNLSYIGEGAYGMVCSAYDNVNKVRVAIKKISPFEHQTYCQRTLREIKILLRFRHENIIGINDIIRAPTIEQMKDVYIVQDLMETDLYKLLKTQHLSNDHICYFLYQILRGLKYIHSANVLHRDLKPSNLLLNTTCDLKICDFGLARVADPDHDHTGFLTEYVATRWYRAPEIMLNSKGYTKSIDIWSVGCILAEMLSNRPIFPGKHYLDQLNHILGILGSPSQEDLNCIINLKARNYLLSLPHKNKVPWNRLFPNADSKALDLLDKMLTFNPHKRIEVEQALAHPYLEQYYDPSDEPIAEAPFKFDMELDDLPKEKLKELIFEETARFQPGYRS
How it was run: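 Compounds were tested as half-log dilutions from 0.0005 to 10 uM in Tris pH 7.5/MgCl2 buffer, with a substrate mix of 1 uM biotin-MBP peptide and 24 uM ATP and an enzyme mix of 25 nM ERK2. Reaction ran 60 min at room temperature. Phospho-MBP was detected by HTRF (Eu-anti-phospho-MBP/SA-APC, 665/620 nm), and IC50 was fitted with a variable-slope sigmoidal curve.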

T1 sequence (P27361 whole entry): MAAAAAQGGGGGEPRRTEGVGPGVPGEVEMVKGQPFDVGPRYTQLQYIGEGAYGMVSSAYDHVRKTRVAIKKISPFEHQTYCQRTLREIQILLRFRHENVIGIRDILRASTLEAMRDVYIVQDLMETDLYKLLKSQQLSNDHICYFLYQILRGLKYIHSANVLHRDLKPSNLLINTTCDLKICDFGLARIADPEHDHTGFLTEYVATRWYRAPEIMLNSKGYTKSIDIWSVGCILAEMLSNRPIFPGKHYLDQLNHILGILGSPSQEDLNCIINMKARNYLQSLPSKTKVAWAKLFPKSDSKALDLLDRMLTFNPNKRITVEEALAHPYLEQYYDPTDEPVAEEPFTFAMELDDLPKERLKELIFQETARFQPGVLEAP

IC50 (ERK1) [nM] | IC50 (ERK2) [nM] | SMILES
< 50 | ≤ 50 | Cc1cnc(Nc2ccc(F)c(N3CCNCC3)c2)nc1-n1ccc(C(=O)NC(CO)c2cccc(Cl)c2)c1 (stereo not shown) [Compound 213, N-(1-(3-chlorophenyl)-2-hydroxyethyl)-1-(2-((4-fluoro-3-(piperazin-1-yl)phenyl)amino)-5-methylpyrimidin-4-yl)-1H-pyrrole-3-carboxamide]
< 50 | ≤ 50 | Cc1cnc(NC2CCNCC2)nc1-n1cnc(C(=O)NC(CO)c2cccc(Cl)c2)c1 (stereo not shown) [Compound 214, N-(1-(3-chlorophenyl)-2-hydroxyethyl)-1-(5-methyl-2-(piperidin-4-ylamino)pyrimidin-4-yl)-1H-imidazole-4-carboxamide]
50 to 100 | ≤ 50 | Cc1cnc(Nc2ccc(C3CCNCC3)cc2)nc1-n1ccc(C(=O)NC(CO)c2cccc(Cl)c2)c1 (stereo not shown) [Compound 215, N-(1-(3-chlorophenyl)-2-hydroxyethyl)-1-(5-methyl-2-((4-(piperidin-4-yl)phenyl)amino)pyrimidin-4-yl)-1H-pyrrole-3-carboxamide]
< 50 | ≤ 50 | Cc1cnc(Nc2ccc(C3CCNCC3)c(F)c2)nc1-n1ccc(C(=O)NC(CO)c2cccc(Cl)c2)c1 (stereo not shown) [Compound 216, N-(1-(3-chlorophenyl)-2-hydroxyethyl)-1-(2-((3-fluoro-4-(piperidin-4-yl)phenyl)amino)-5-methylpyrimidin-4-yl)-1H-pyrrole-3-carboxamide]
100 to 500 | 100 to 500 | Cc1cnc(NC2CCOCC2)nc1-n1cnc(C(=O)N[C@@H](CO)c2cccc(Cl)c2)c1 [Compound 217, (R)-N-(1-(3-chlorophenyl)-2-hydroxyethyl)-1-(5-methyl-2-((tetrahydro-2H-pyran-4-yl)amino)-pyrimidin-4-yl)-1H-imidazole-4-carboxamide]
100 to 500 | 500 to 2500 | CC[C@@H](CO)Nc1ncc(C)c(-n2ccc(C(=O)N[C@@H](CO)c3cccc(Cl)c3)c2)n1 [Compound 218, N-((R)-1-(3-chlorophenyl)-2-hydroxyethyl)-1-(2-(((S)-1-hydroxy-butan-2-yl)amino)-5-methylpyrimidin-4-yl)-1H-pyrrole-3-carboxamide]
< 50 | ≤ 50 | CC[C@@H](CO)Nc1ncc(C)c(-n2ccc(C(=O)N[C@H](CO)c3cccc(Cl)c3)c2)n1 [Compound 219, N-((S)-1-(3-chlorophenyl)-2-hydroxyethyl)-1-(2-(((S)-1-hydroxy-butan-2-yl)amino)-5-methylpyrimidin-4-yl)-1H-pyrrole-3-carboxamide]
< 50 | ≤ 50 | CC[C@@H](CO)Nc1ncc(C)c(-n2cnc(C(=O)N[C@H](CO)c3cccc(Cl)c3)c2)n1 [Compound 220, N-((S)-1-(3-chlorophenyl)-2-hydroxyethyl)-1-(2-(((S)-1-hydroxy-butan-2-yl)amino)-5-methylpyrimidin-4-yl)-1H-imidazole-4-carboxamide]
< 50 | ≤ 50 | NCC(NC(=O)c1cn(-c2ccnc(Nc3ccc(F)cc3)c2)cn1)c1ccccc1 (stereo not shown) [Compound 221, N-(2-amino-1-phenylethyl)-1-(2-((4-fluorophenyl)-amino)pyridin-4-yl)-1H-imidazole-4-carboxamide]
100 to 500 | 50 to 100 | Cc1cnc(Nc2ccc(F)cc2)cc1-n1cnc(C(=O)NC(CO)c2ccccc2)c1 (stereo not shown) [Compound 222, 1-(2-((4-fluorophenyl)amino)-5-methylpyridin-4-yl)-N-(2-hydroxy-1-phenylethyl)-1H-imidazole-4-carboxamide]
< 50 | ≤ 50 | Cc1cnc(Nc2ccc(F)c(N3CCOCC3)c2)nc1-n1cnc(C(=O)NC(CO)c2cccc(Cl)c2)c1 (stereo not shown) [Compound 223, N-(1-(3-chlorophenyl)-2-hydroxyethyl)-1-(2-((4-fluoro-3-morpholinophenyl)amino)-5-methyl-pyrimidin-4-yl)-1H-imidazole-4-carboxamide]

From patent US9896445B2, “Heterocyclic inhibitors of ERK1 and ERK2 and their use in the treatment of cancer” (Asana Biosciences, LLC, priority 2015, dated 2018)
